Assay results reported in patent US20180360940A1, “LISTERIA-BASED IMMUNOTHERAPY AND METHODS OF USE THEREOF” (priority 2015, published 2018).
Where two headings read alike, the source gives them in different places.

Tests used:
[1] = system: PSA-specific and SIINFEKL-specific immunity; experiment: PSA- and […]-specific CD8 T cells after PSA-SVN Tag with early antibiotics; format: in vivo, C57BL/6 mice; conditions: PSA-SVN Tag IP, spleens day 7
Protocol: FIGS. 17A-D Results from early time point administration of ampicillin at 2 hours, 4 hours, and 6 hours post-Lm vaccine. % PSA specific CD8 T cells (FIG. 17A), % […] specific CD8 T cells (FIG. 17B), # of PSA specific CD8 cells (FIG. 17C), and # of […] specific CD8 cells (FIG. 17D).
FIGS. 18A-B Splenocytes from early gentamicin treatment at 2 hours, 4 hours, or 6 hours +ampicillin 24 hour chase of LM-PSA-SVN treated mice. % PSA specific CD8 T cells (FIG. 18A) and % […] specific CD8 T cells (FIG. 18B).
An assay was performed to examine the generation of […]-specific and PSA-specific immunity in mice treated with ampicillin or gentamicin/ampicillin and immunized with PSA-SVN Tag. The […]-specific immune response was detected by pentamer staining using the known T cell epitopes for C57BL/6 mice, H-2 Db PSA65-73 ([…]) and H-2 Kb OVA257-264 ([…]).
Prime-Harvest with Ampicillin: On Day 0, all groups were infected with PSA-SVN Tag LM IP, and then ampicillin was administered at 100 mg/kg IP at various time points from hour 2, 4, 6, 24. All Animals (except negative control) were given 1 dose of ampicillin at 24 hours. 7 days after Day 0 infection, mice were sacrificed and spleens were harvested and analyzed for specific T-cell epitopes to H-2 Db PSA65-73 ([…]) and H-2 Kb OVA257-264 ([…]). […]

TC-1 tumor = TC-1 tumor regression study, ADXS11-001 with or without ampicillin; format: in vivo, C57BL/6 female mice; conditions: DP ADXS11-001 (HPV 1.0) IP, ampicillin 100 mg/kg IP at 4-hr, 6-hr, 24-hr
Protocol: FIG. 20A-B Results for ADXS11-001 therapy with our without early ampicillin treatment. TC1 tumor regression (FIG. 20A) and % survival (FIG. 20B).
A tumor regression study was initiated in C57BL/6 female mice using TC-1 lung epithelial cells to assess the therapeutic efficacy of different Lm treatment with or without ampicillin treatment and whether it alters the tumor microenvironment.
Tumor Inoculation: The tumor model used in this study is the TC-1 tumor model. TC-1 cells are cultured in complete medium. Complete medium for TC-1 cells: 450 ml RPMI 1640, 50 ml 10%FBS, 5 ml NEAA (100 uM), 5 ml L-Glutamine ([…]), and 5 ml Pen/strep (100 U/mL) penicillin+100 ug/mL streptomycin) G418 (400 ug/mL) (added to cells when splitting). Two days prior to implanting tumor cells in mice, TC-1 cells were sub-cultured in complete media. On the day of the experiment (Day 0), cells were trypsinized and washed twice with media. Cells were counted and re-suspended at a concentration of 1×10^5 cells/200 ul in PBS/mouse for injection. Tumor cells were injected subcutaneously in the right flank of each mouse. Tumors were measured twice a week until they reached a size of 12 mm in diameter. Once tumors met sacrifice criteria, mice were euthanized and tumors were excised and measured.
Vaccine/Ampicillin Treatment: On Day 6, when tumors are ˜5mm in size; vaccines and treatments began. […]

TPSA23 tumor = TPSA23 tumor regression study, ADXS31-142 with or without ampicillin; format: in vivo, C57BL/6 male mice; conditions: DP ADXS31-142 (PSA 1.0) IP, ampicillin 100 mg/kg IP at 4-hr, 6-hr, 24-hr
Protocol: FIG. 22A-B Results for ADXS31-142 therapy with our without early ampicillin treatment. TC1 tumor regression (FIG. 22A) and % survival (FIG. 22B).
A tumor regression study was initiated in C57BL/6 male mice using TPSA23 prostate cancer cells to assess the therapeutic efficacy of different Lm treatment with or without ampicillin treatment.
Tumor Inoculation: The tumor model used in this study is the TPSA23 tumor model. TPSA23 cells are cultured in complete medium. Complete medium for TPSA23 cells: 430 ml DMEM with Glucose, 45 ml FBS, 25 ml Nu-Serum IV, 5 ml L-Glutamine, 5 ml Na-bicarbonate, 0.005 mg/ml Bovine Insulin—Insulin stock (2.5 mg/ml) is prepared in acidified water (10 ml water+100 ul glacial acetic acid) (Add to the flask while splitting cells—6.4 uL/8 mLs media, 12.8 uL/16 mLs media, 19.2 uL/24 mLs media, etc.), and 10 nM Dehydroisoandrosterone (DHA)—DHA stock (10 mM) is prepared in ethanol. (Add to the flask while splitting cells—140 uL/70 mLs media, 70 uL/35 mLs media, 35 uL/17.5 mLs media, etc.). Two days prior to implanting tumor cells in mice, TPSA23 cells are sub-cultured in complete media. […] Cells were counted and re-suspended at a concentration of 2×10^6 cells/200 ul in PBS/mouse for injection. […] Tumors are measured twice a week until they reach a size of 12 mm in diameter. Once tumors met sacrifice criteria, mice were euthanized and tumors were excised and measured. […]

[2] = 10 mg/mL in sterile H2O, cited from earlier work

Compound: CC1(C)S[C@@H]2[C@H](NC(=O)[C@H](N)c3ccccc3)C(=O)N2[C@H]1C(=O)O [ampicillin]
- PSA specific and SIINFEKL specific CD8 T cells, difference between groups ([1]; ampicillin 100 mg/kg IP at 2, 4, 6 hours plus 24 hours): No significant difference
- survival, difference between Lm treatment groups with or without ampicillin (TC-1 tumor): No significant difference
- tumor regression, difference between Lm treatment groups with or without ampicillin (TC-1 tumor): No significant difference
- survival, difference between Lm treatment groups with or without ampicillin (TPSA23 tumor): No significant difference
- tumor regression, difference between Lm treatment groups with or without ampicillin (TPSA23 tumor): No significant difference
- solution stability [2]: 3 days

Compound: gentamicin
- PSA specific and SIINFEKL specific CD8 T cells, difference between groups ([1]; gentamicin 5 mg/kg IP at 2, 4, 6 hours plus ampicillin 24 hour chase): No significant difference
- solution stability ([2]; 2-8 C): months
- solution stability ([2]; at 37 C): 5 days
